Laboratory results reported in PMC2760071 (Bioorganic & medicinal chemistry letters, 2009).

Key:
[1] = target: T1, murine COX-2 (Mus musculus, UniProt Q05769); assay: Competitive COX inhibition assay, reduced arachidonate; type: biochemical; settings: COX-2, 5 μM arachidonate, at the concentration ranges tested
T1 sequence (Q05769 18-604): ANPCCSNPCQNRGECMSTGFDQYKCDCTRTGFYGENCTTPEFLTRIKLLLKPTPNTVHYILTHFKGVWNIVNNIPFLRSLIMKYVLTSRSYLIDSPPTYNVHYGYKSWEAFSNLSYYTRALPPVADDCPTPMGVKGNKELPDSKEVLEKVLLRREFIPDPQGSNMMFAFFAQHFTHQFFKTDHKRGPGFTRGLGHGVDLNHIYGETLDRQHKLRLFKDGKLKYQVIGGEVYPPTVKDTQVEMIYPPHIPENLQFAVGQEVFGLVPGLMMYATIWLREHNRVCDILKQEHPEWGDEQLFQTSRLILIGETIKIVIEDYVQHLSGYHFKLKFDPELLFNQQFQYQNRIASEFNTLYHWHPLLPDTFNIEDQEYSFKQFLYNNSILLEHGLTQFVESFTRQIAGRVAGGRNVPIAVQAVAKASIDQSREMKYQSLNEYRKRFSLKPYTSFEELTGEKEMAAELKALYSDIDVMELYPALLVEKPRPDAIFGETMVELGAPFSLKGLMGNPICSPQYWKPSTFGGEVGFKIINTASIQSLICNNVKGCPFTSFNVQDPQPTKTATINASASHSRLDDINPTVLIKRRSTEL

[2] = target: T1, murine COX-2; settings: COX-2, 50 μM arachidonic acid (saturating)
[3] = Photoisomerization / light stability of E and Z isomers
[4] = target: T2, ovine COX-1 (Ovis aries, UniProt P05979); settings: COX-1, 50 μM arachidonic acid (saturating)
T2 sequence (P05979 25-600): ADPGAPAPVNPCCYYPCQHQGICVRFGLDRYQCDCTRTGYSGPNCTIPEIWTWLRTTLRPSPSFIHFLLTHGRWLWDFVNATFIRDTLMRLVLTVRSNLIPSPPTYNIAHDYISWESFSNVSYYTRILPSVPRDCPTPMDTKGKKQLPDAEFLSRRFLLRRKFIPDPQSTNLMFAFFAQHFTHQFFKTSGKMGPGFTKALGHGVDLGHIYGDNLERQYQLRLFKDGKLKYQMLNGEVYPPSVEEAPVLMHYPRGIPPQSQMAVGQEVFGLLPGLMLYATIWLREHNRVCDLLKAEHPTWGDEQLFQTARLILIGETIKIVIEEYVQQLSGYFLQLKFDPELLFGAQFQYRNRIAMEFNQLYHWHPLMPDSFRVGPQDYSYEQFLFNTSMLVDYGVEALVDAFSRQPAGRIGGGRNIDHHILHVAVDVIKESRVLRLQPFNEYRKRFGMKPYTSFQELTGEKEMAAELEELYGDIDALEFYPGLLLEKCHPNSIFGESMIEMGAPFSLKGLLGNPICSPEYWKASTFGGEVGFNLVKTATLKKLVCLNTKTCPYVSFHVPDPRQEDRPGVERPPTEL

[5] = system: oCOX-1; settings: wild-type oCOX-1; cited from earlier work
[6] = target: T2, ovine COX-1; settings: COX-1, 5 μM vs 50 μM arachidonate, data not shown

SMILES: CSc1ccc(/C=C2\C=C(CC(=O)O)c3cc(F)ccc32)cc1
- competitive inhibition (in words) [1]: no inhibition
- time-dependent inhibition (in words) [2]: no time-dependent inhibition
- percentage conversion to the Z-isomer ([3]; 370 nm, 24 hours, high-pressure mercury lamp): 1-2%
- time-dependent inhibition (in words) [4]: no time-dependent inhibition

SMILES: CSc1ccc(/C=C2/C(C)=C(CC(=O)O)c3cc(F)ccc32)cc1 [sulindac sulfide, reference compound]
- effect of reduced substrate concentration on ability to inhibit [6]: not significantly affected
- photoisomerization (interconversion) ([3]; natural light and ultraviolet conditions): no interconversion was observed
- maximal extent (plateau) of inhibition [4]: around 75%

SMILES: CSc1ccc(/C=C2/C=C(CC(=O)O)c3cc(F)ccc32)cc1 [(Z)-2′-des-methyl sulindac sulfide]
- behaviour on exposure to natural light ([3]; natural light, during HPLC purification): photoisomerized to the E-isomer
